Experimental data from patent publication US11292796B2 (SIGNAL PHARMACEUTICALS, LLC, priority 2008, dated 2022).

Biological target: T1, mTOR (Homo sapiens, UniProt P42345)
T1 construct: purchased Invitrogen PR8683A
Assay: mTOR HTR-FRET assay
Type: biochemical
Conditions: read-out: Act. Level (IC50 in mTor HTR-FRET assay)
Experimental: The following is an example of an assay that can be used to determine the mTOR inhibitory activity of a test compound. Heteroaryl Compounds were dissolved in DMSO and prepared as 10 mM stocks and diluted appropriately for the experiments. Reagents were prepared as follows:
“Simple TOR buffer” (used to dilute high glycerol TOR fraction): 10 mM Tris pH 7.4, 100 mM NaCl, 0.1% Tween-20, 1 mM DTT. Invitrogen mTOR (cat #PR8683A) was diluted in this buffer to an assay concentration of 0.200 μg/mL.
To 20 μL of the Simple mTor buffer is added 0.5 μL of test compound in DMSO. To initiate the reaction 5 μL of ATP/Substrate solution was added to 20 μL of the Simple TOR buffer solution (control) and to the compound solution prepared above.

T1 sequence (P42345 1360-2549 limits assumed): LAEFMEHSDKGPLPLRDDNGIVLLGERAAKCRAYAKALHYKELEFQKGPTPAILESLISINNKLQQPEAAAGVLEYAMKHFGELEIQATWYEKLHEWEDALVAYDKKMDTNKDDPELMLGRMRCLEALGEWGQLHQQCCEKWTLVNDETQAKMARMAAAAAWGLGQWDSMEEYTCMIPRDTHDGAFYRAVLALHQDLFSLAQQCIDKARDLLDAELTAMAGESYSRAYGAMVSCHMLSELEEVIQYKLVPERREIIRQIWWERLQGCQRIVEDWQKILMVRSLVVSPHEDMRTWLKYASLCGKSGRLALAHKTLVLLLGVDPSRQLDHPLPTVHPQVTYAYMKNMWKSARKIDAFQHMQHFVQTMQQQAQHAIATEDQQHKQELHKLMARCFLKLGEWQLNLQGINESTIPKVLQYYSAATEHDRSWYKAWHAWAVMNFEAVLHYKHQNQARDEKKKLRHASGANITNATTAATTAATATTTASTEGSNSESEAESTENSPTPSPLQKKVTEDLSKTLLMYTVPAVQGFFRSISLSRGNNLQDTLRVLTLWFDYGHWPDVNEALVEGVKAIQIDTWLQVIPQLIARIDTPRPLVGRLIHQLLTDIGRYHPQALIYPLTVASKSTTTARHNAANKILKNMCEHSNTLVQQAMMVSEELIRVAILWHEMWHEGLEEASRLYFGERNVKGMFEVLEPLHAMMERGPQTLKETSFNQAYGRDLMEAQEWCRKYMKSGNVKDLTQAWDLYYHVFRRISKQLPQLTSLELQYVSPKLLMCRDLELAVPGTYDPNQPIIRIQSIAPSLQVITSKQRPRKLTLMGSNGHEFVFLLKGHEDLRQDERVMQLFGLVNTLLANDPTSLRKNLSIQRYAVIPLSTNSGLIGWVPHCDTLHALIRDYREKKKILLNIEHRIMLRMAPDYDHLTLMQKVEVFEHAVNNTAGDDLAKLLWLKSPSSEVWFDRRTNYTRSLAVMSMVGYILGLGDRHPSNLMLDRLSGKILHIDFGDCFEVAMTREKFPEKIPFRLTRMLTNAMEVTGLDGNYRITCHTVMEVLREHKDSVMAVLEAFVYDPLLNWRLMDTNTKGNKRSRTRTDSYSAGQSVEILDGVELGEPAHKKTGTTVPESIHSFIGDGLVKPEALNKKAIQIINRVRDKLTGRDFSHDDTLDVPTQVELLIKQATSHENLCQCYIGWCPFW

Structure (SMILES) | IC50 [nM]
CC(C)(O)c1ccc(-c2cnc3c(n2)N([C@H]2CC[C@H](O)CC2)CC(=O)N3)cn1 [Example 101, 4-(trans-4-hydroxycyclohexyl)-6-(6-(2-hydroxypropan-2-yl)pyridin-3-yl)-3,4-dihydropyrazino[2,3-b]pyrazin-2(1H)-one] | 0.005 to 250
CO[C@H]1CC[C@H](CN2CC(=O)Nc3ncc(-c4ccc(C(C)(C)O)cc4)nc32)CC1 [Example 87, 6-(4-(2-hydroxypropan-2-yl)phenyl)-4-((trans-4-methoxycyclohexyl)methyl)-3,4-dihydropyrazino[2,3-b]pyrazin-2(1H)-one] | 250 to 500
Cc1nc(-c2nnc[nH]2)ccc1-c1cnc2c(n1)N1CCOCC1C(=O)N2 (stereo not shown) [Example 100, 9-(6-(4H-1,2,4-triazol-3-yl)-2-methyl-3-pyridyl)-6,11,4a-trihydromorpholino[4,3-e]pyrazino[2,3-b]pyrazin-5-one] | 250 to 500
Cc1cc(-c2nnc[nH]2)ccc1-c1cnc2c(n1)N(CCC1CCOCC1)C(C)(C)C(=O)N2 [Example 84, 3,3-dimethyl-6-(2-methyl-4-(4H-1,2,4-triazol-3-yl)phenyl)-4-(2-(tetrahydro-2H-pyran-4-yl)ethyl)-3,4-dihydropyrazino[2,3-b]pyrazin-2(1H)-one] | 0.005 to 250
O=C1CNc2ncc(-c3ccc(-c4nc[nH]n4)nc3)nc2N1[C@H]1CC[C@H](O)CC1 [Example 170, 7-(6-(1H-1,2,4-triazol-3-yl)pyridin-3-yl)-1-(trans-4-hydroxycyclohexyl)-3,4-dihydropyrazino[2,3-b]pyrazin-2(1H)-one] | 0.005 to 250
COCCN1CC(=O)Nc2ncc(-c3cnc(-c4nc[nH]n4)cc3C)nc21 [Example 30, 4-(2-methoxyethyl)-6-(4-methyl-6-(1H-1,2,4-triazol-3-yl)pyridin-3-yl)-3,4-dihydropyrazino[2,3-b]pyrazin-2(1H)-one] | 0.005 to 250
CO[C@H]1CC[C@H](N2C(=O)CNc3ncc(-c4ccc(-c5nc[nH]n5)nc4)nc32)CC1 [Example 171, 7-(6-(1H-1,2,4-triazol-3-yl)pyridin-3-yl)-1-(trans-4-methoxycyclohexyl)-3,4-dihydropyrazino[2,3-b]pyrazin-2(1H)-one] | 0.005 to 250
CO[C@@H]1CC[C@H](CN2CC(=O)Nc3ncc(-c4ccc(C(C)(C)O)nc4)nc32)C1 [Example 58, 6-(6-(2-hydroxypropan-2-yl)pyridin-3-yl)-4-(((1S,3R)-3-methoxycyclopentyl)methyl)-3,4-dihydropyrazino[2,3-b]pyrazin-2(1H)-one] | 0.005 to 250
Cc1nc(-c2nnc[nH]2)ccc1-c1cnc2c(n1)N(Cc1cccc(C#N)c1)C(=O)CN2 [Example 203, 3-((7-(2-methyl-6-(4H-1,2,4-triazol-3-yl)pyridin-3-yl)-2-oxo-3,4-dihydropyrazino[2,3-b]pyrazin-1(2H)-yl)methyl)benzonitrile] | 0.005 to 250
O=C1CNc2ncc(-c3cn[nH]c3)nc2N1CCC1CCOCC1 [Example 201, 7-(1H-pyrazol-4-yl)-1-(2-(tetrahydro-2H-pyran-4-yl)ethyl)-3,4-dihydropyrazino[2,3-b]pyrazin-2(1H)-one] | 1000 to 10000
O=C1CN(CCC2CCOCC2)c2nc(-c3cnc4nc[nH]c4c3)cnc2N1 [Example 36, 6-(1H-imidazo[4,5-b]pyridin-6-yl)-4-(2-(tetrahydro-2H-pyran-4-yl)ethyl)-3,4-dihydropyrazino[2,3-b]pyrazin-2(1H)-one] | 500 to 1000
COCCN1c2nc(-c3ccc(-c4nnc[nH]4)cc3C)cnc2NC(=O)C1(C)C [Example 71, 4-(2-methoxyethyl)-3,3-dimethyl-6-(2-methyl-4-(4H-1,2,4-triazol-3-yl)phenyl)-3,4-dihydropyrazino[2,3-b]pyrazin-2(1H)-one] | 0.005 to 250
CO[C@@H]1CC[C@@H](CN2CC(=O)Nc3ncc(-c4ccc(C(C)(C)O)nc4)nc32)C1 [Example 54, 6-(6-(2-hydroxypropan-2-yl)pyridin-3-yl)-4-(((1R,3R)-3-methoxycyclopentyl)methyl)-3,4-dihydropyrazino[2,3-b]pyrazin-2(1H)-one] | 0.005 to 250
C[C@H](O)c1ccc(-c2cnc3c(n2)N(CCC2CCOCC2)C(=O)CN3)cn1 [Example 253, (S)-7-(6-(1-hydroxyethyl)pyridin-3-yl)-1-(2-(tetrahydro-2H-pyran-4-yl)ethyl)-3,4-dihydropyrazino[2,3-b]pyrazin-2(1H)-one] | 0.005 to 250
Cc1cc(-c2nc[nH]n2)c(F)cc1-c1cnc2c(n1)N(C(C)C)CC(=O)N2 [Example 25, 6-(5-fluoro-2-methyl-4-(1H-1,2,4-triazol-3-yl)phenyl)-4-isopropyl-3,4-dihydropyrazino[2,3-b]pyrazin-2(1H)-one] | 0.005 to 250
Cc1nc(-c2nnc[nH]2)ccc1-c1cnc2c(n1)N(CC1CCOCC1)CC(=O)N2 [Example 93, 6-(2-methyl-6-(4H-1,2,4-triazol-3-yl)pyridin-3-yl)-4-((tetrahydro-2H-pyran-4-yl)methyl)-3,4-dihydropyrazino[2,3-b]pyrazin-2(1H)-one] | 250 to 500

Structure (SMILES) | IC50 [nM]
COCCN1CCN2c3nc(-c4ccc(-c5nnc[nH]5)cc4C)cnc3NC(=O)C2C1 (stereo not shown) [Example 98, 9-(4-(4H-1,2,4-triazol-3-yl)-2-methylphenyl)-3-(2-methoxyethyl)-6,11,4a-trihydropiperazino[1,2-e]pyrazino[2,3-b]pyrazin-5-one] | 250 to 500
Cc1c(-c2cnc3c(n2)N(C2CCOCC2)CC(=O)N3)ccc(-c2nc[nH]n2)c1F [Example 27, 6-(3-fluoro-2-methyl-4-(1H-1,2,4-triazol-3-yl)phenyl)-4-(tetrahydro-2H-pyran-4-yl)-3,4-dihydropyrazino[2,3-b]pyrazin-2(1H)-one] | 0.005 to 250
Nc1cc(-c2cnc3c(n2)N(CCC2CCOCC2)C(=O)CN3)ccn1 [Example 183, 7-(2-aminopyridin-4-yl)-1-(2-(tetrahydro-2H-pyran-4-yl)ethyl)-3,4-dihydropyrazino[2,3-b]pyrazin-2(1H)-one] | 500 to 1000
O=C1CNc2ncc(-c3ccncc3)nc2N1CCC1CCOCC1 [Example 195, 7-(pyridin-4-yl)-1-(2-(tetrahydro-2H-pyran-4-yl)ethyl)-3,4-dihydropyrazino[2,3-b]pyrazin-2(1H)-one] | 1000 to 10000
Cc1cc(-c2nnc[nH]2)ccc1-c1cnc2c(n1)N(CC1CCOCC1)C(C)(C)C(=O)N2 [Example 76, 3,3-dimethyl-6-(2-methyl-4-(4H-1,2,4-triazol-3-yl)phenyl)-4-((tetrahydro-2H-pyran-4-yl)methyl)-3,4-dihydropyrazino[2,3-b]pyrazin-2(1H)-one] | 0.005 to 250
NC(=O)c1cccc(-c2cnc3c(n2)N(CCC2CCOCC2)CC(=O)N3)c1 [Example 33, 3-(6-oxo-8-(2-(tetrahydro-2H-pyran-4-yl)ethyl)-5,6,7,8-tetrahydropyrazino[2,3-b]pyrazin-2-yl)benzamide] | 500 to 1000
CO[C@H]1CC[C@@H](N2C(=O)CNc3ncc(-c4ccc(C(C)(C)O)nc4)nc32)C1 [Example 211, 7-(6-(2-hydroxypropan-2-yl)pyridin-3-yl)-1-((1R,3S)-3-methoxycyclopentyl)-3,4-dihydropyrazino[2,3-b]pyrazin-2(1H)-one] | 0.005 to 250
CO[C@H]1CC[C@H](N2C(=O)CNc3ncc(-c4cnc(-c5nc[nH]n5)cc4C)nc32)CC1 [Example 202, 1-(trans-4-methoxycyclohexyl)-7-(4-methyl-6-(1H-1,2,4-triazol-3-yl)pyridin-3-yl)-3,4-dihydropyrazino[2,3-b]pyrazin-2(1H)-one] | 0.005 to 250
O=C1CN(CCC2CCOCC2)c2nc(-c3ccc(-c4nnc[nH]4)c(F)c3)cnc2N1 [Example 60, 6-(3-fluoro-4-(4H-1,2,4-triazol-3-yl)phenyl)-4-(2-(tetrahydro-2H-pyran-4-yl)ethyl)-3,4-dihydropyrazino[2,3-b]pyrazin-2(1H)-one] | 0.005 to 250
CC(C)(O)c1ccc(-c2cnc3c(n2)N(Cc2ccc(C(F)(F)F)cc2)C(=O)CN3)cn1 [Example 257, 7-(6-(2-hydroxypropan-2-yl)pyridin-3-yl)-1-(4-(trifluoromethyl)benzyl)-3,4-dihydropyrazino[2,3-b]pyrazin-2(1H)-one] | 0.005 to 250
Cc1c(-c2cnc3c(n2)N(CCC2CCOCC2)C(=O)CN3)ccc(-c2nc[nH]n2)c1F [Example 248, 7-(3-fluoro-2-methyl-4-(1H-1,2,4-triazol-3-yl)phenyl)-1-(2-(tetrahydro-2H-pyran-4-yl)ethyl)-3,4-dihydropyrazino[2,3-b]pyrazin-2(1H)-one] | 0.005 to 250
O=C1CNc2ncc(-c3cccc4[nH]ncc34)nc2N1CCC1CCOCC1 [Example 181, 7-(1H-indazol-4-yl)-1-(2-(tetrahydro-2H-pyran-4-yl)ethyl)-3,4-dihydropyrazino[2,3-b]pyrazin-2(1H)-one] | 0.005 to 250
CO[C@H]1CC[C@H](N2CC(=O)Nc3ncc(-c4ccc(-c5nc[nH]n5)nc4)nc32)CC1 [Example 12] | 0.005 to 250
Cc1cc(-c2nc[nH]n2)c(F)cc1-c1cnc2c(n1)N([C@H]1CC[C@H](O)CC1)CC(=O)N2 [Example 23, 6-(5-fluoro-2-methyl-4-(1H-1,2,4-triazol-3-yl)phenyl)-4-(trans-4-hydroxycyclohexyl)-3,4-dihydropyrazino[2,3-b]pyrazin-2(1H)-one] | 0.005 to 250
CO[C@H]1CC[C@@H](N2CC(=O)Nc3ncc(-c4ccc(-c5nnc[nH]5)nc4C)nc32)C1 [Example 38, 4-((1R,3S)-3-methoxycyclopentyl)-6-(2-methyl-6-(4H-1,2,4-triazol-3-yl)pyridin-3-yl)-3,4-dihydropyrazino[2,3-b]pyrazin-2(1H)-one] | 0.005 to 250
